Measured values: publication PMC9714921 (PLOS Pathogens, 2022)
Several values for one entry are separate records, joined by “and”; a condition that tells them apart may be missing. Equal entries are not always repeated. Structures can show the parent of a compound that is named as a salt. Where two headings read alike, the source gives them in different places.

Tests used:
[1] = biological target: Dme-ACR-16 (Dracunculus medinensis, UniProt A0A0N4U0T6); experiment: cell-based; format: cell-based
Procedure: (§1) cRNA for oocyte injection was prepared with the mMESSAGE mMACHINE T7 kit following manufacturers protocol (Ambion, USA). Concentration was determined using a Nanodrop spectrophotometer. Desired subunit combinations with associated accessory proteins were mixed and diluted with nuclease-free water to a final concentration of 250 ng/uL for each construct.
(§2) Adult female X. laevis oocyte extraction was performed in accordance with the McGill University Animal Use Protocol 2015–7758 following standard protocol. Briefly, frog ovary lobes were placed in a Ca^2+-free OR2 solution (82 mM NaCl, 2 mM KCl, 1 mM MgCl2, 5 mM HEPES buffer, pH 7.3) and manually divided into clusters of <10 oocytes with thin tweezers followed by a 90-minute incubation in 10 mg/mL collagenase type II (Sigma-Aldrich, USA). Oocytes were washed in Ca^2+-free OR2 and placed ND96 solution (NaCl 96 mM, KCl 2 mM, CaCl2 1.8 mM, MgCl2 1 mM and HEPES 5 mM, pH 7.3) supplemented with sodium pyruvate 2.5 mM [86] and incubated at 18°C until cRNA injection. Oocytes were injected with 50 nL (12.5 ng of each injected gene) of the desired cRNA subunit and accessory protein combination mix with the NanojectII (Drummond Scientific, USA). Following injection, oocytes were incubated in ND96 buffer at 18°C until electrophysiology. All electrophysiology was conducted two days post-injection, except for the expression analysis assay in which oocytes were measured every day after injection for three consecutive days.
(§3) All drugs were dissolved in recording solution (NaCl 100 mM, KCl 2.5 mM, CaCl2 1 mM, HEPES 5 mM, pH 7.3) to a stock concentration of 10 mM and diluted to their final recording concentrations. Oxantel and bephenium were first dissolved in DMSO to ensure a final recording concentration contained less than 0.1% DMSO. For agonist profiling, all drugs were diluted to a concentration of 100 μM.
(§4) Oocytes were placed individually in an RC3Z chamber (Harvard Apparatus, USA) submerged in recording solution (NaCl 100 mM, KCl 2.5 mM, CaCl2 1 mM, HEPES 5 mM, pH 7.3). The RC3Z chamber was connected to a perfusion system containing recording solution and ligand solutions. Pulled glass capillaries (World Precision Instruments, USA) were filled with 3M KCl and the tips clipped and checked for appropriate resistance (between 0.5 and 5 MΩ). A 3M KCl agar bridge grounded the oocyte bath chamber. Measurements were made using an Axon Axoclamp 900A amplifier with Digidata1550M. […] Ligand solutions were applied to the oocytes with an approximate flow rate of 1.2 m/s and current responses measured. Oocytes were exposed to the ligand solution until a distinct current peak was observed followed by a wash with the recording solution until current returned to baseline for a minimum of 10 seconds until the next ligand exposure. For BAPTA-AM exposed oocytes, oocytes were incubated in 100 μM BAPTA-AM for four hours prior to electrophysiology recording. Data was analyzed using Clampex 9.2 (Axon Instruments, USA) and statistical analysis and graphs produced in Prism (GraphPad version 9.1). T-tests were used to compare responses with error bars representing standard error. For concentration-response curves, individual oocyte current response to the different ligand concentrations were normalized to the response obtained with 300 μM. Data was fit using the Graphpad “log(agonist) vs normalized response–variable slope” equation, with 95% confidence intervals being reported. […] For examples of oocyte responses, recordings were filtered in Clampfit using the lowband pass at 40 Hz cutoff.

[2] = biological target: Asu-ACR-16 (Ascaris suum, UniProt F1KYJ9); experiment: cell-based; format: cell-based
Procedure: as §1, §2, §3, §4

[3] = biological target: Tzc-ACR-16 (Thelazia callipaeda, UniProt A0A158RD20); experiment: cell-based; format: cell-based
Procedure: as §1, §2, §3, §4

[4] = system: Gpu-ACR-16; experiment: Voltage-clamp electrophysiology, N-AChR reconstituted in Xenopus laevis oocytes; format: cell-based, Gonglyonema pulchrum; conditions: for response to 100 μM ligand relative to 100 μM ACh (in words): agonist panel, Fig 5C; for current response to 100 μM nicotine: co-injected: H. contortus RIC-3
Procedure: as §1, §2, §3, §4

[5] = biological target: Asu-ACR-16-bmaICL chimera (Ascaris suum; Brugia malayi, UniProt A0A4E9FSR7+F1KYJ9); format: cell-based, A. suum (B. malayi ICL); conditions: compared to Asu-ACR-16 profile, S3D Fig
Procedure: B. malayi acr-16 and accessory proteins ric-3, unc-50, unc-74 and molo-1 were cloned from adult female B. malayi cDNA received as a gift from Dr. T. Geary using the primers described in S1 Table. B. malayi eat-18 was prepared from two overlapping oligonucleotide primers. Other subunits were synthesized from their predicted genome sequence (Gene Universal, USA) (S2 Table). […] All sequences were cloned into the pTD2 oocyte expression vector. Asu-ACR-16 and Tzc-ACR-16 chimeras were constructed using appropriate restriction enzymes, reciprocal exchange through ligation and confirmed by sequencing (McLab, USA).
as §1, §2
All drugs were dissolved in recording solution (NaCl 100 mM, KCl 2.5 mM, CaCl2 1 mM, HEPES 5 mM, pH 7.3) to a stock concentration of 10 mM and diluted to their final recording concentrations. […]
Oocytes were placed individually in an RC3Z chamber (Harvard Apparatus, USA) submerged in recording solution (NaCl 100 mM, KCl 2.5 mM, CaCl2 1 mM, HEPES 5 mM, pH 7.3). […] Ligand solutions were applied to the oocytes with an approximate flow rate of 1.2 m/s and current responses measured. […] Data was analyzed using Clampex 9.2 (Axon Instruments, USA) and statistical analysis and graphs produced in Prism (GraphPad version 9.1). […]

[6] = system: N. americanus N-AChR; conditions: accessory protein Ric-3; ref [33]; read-out: EC50 μM NIC; cited from earlier work
[7] = system: P. equorum N-AChR; conditions: accessory protein Ric-3; ref [40]; read-out: EC50 μM NIC; cited from earlier work
[8] = system: Bma-ACR-16; format: cell-based, Brugia malayi; conditions: co-injected: H. contortus RIC-3
Procedure: as §1, §2, §3, §4

[9] = system: A celanicum N-AChR; conditions: accessory protein Ric-3; ref [33]; read-out: EC50 μM NIC; cited from earlier work
[10] = system: C. elegans N-AChR; design: method as in Charvet et al., 2018 [40]; conditions: accessory protein Ric-3; ref Charvet et al., 2018 [40]; read-out: EC50 μM NIC; cited from earlier work

Dme-ACR-16, sequence (A0A0N4U0T6 entry or part of it): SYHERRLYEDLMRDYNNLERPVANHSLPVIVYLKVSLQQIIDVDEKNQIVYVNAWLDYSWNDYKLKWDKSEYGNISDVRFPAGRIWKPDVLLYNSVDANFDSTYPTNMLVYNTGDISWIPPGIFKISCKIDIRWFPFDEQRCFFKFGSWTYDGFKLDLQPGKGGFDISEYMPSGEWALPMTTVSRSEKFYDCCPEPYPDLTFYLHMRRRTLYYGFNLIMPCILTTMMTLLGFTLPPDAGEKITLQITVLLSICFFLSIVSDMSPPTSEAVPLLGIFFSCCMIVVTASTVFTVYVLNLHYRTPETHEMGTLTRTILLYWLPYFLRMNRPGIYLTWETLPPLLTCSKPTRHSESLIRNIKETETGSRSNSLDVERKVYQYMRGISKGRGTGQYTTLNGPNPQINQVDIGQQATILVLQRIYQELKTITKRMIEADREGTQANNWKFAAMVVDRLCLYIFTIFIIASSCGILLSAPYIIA
Tzc-ACR-16, sequence (A0A158RD20 entry or part of it): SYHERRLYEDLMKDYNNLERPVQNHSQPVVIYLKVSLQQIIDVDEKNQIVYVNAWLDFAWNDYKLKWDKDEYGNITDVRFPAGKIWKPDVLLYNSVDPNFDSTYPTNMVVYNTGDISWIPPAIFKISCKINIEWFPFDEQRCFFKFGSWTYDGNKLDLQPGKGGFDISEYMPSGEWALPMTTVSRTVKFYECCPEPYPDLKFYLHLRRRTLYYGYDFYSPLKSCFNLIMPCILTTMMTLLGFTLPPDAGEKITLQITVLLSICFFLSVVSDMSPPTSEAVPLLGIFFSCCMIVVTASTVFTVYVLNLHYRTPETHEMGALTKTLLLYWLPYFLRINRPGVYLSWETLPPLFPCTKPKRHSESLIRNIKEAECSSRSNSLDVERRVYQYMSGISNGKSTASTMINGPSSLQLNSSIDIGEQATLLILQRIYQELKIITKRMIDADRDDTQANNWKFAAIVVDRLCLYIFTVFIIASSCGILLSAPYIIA

C[N+](C)(CCOc1ccccc1)Cc1ccccc1 [BEPH, bephenium]
response to 100 μM ligand relative to 100 μM ACh (in words) ([1]; agonist panel, Fig 5B): No response
response to 100 μM ligand relative to 100 μM ACh (in words) ([2]; agonist panel, Fig 5A): No response
response to 100 μM ligand relative to 100 μM ACh (in words) ([3]; agonist panel, Fig 5D): No response
response to 100 μM ligand relative to 100 μM ACh (in words) [4]: No response

C[N+](C)(C)CC(=O)O [BET, betaine]
response to 100 μM ligand relative to 100 μM ACh (in words) ([1]; agonist panel, Fig 5B): No response
response to 100 μM ligand relative to 100 μM ACh (in words) ([2]; agonist panel, Fig 5A): No response
response to 100 μM ligand relative to 100 μM ACh (in words) ([3]; agonist panel, Fig 5D): No response
response to 100 μM ligand relative to 100 μM ACh (in words) [4]: No response

NCCc1ccc(O)c(O)c1 [DA, dopamine]
response to 100 μM ligand relative to 100 μM ACh (in words) ([1]; agonist panel, Fig 5B): No response
response to 100 μM ligand relative to 100 μM ACh (in words) ([2]; agonist panel, Fig 5A): No response
response to 100 μM ligand relative to 100 μM ACh (in words) ([3]; agonist panel, Fig 5D): No response
response to 100 μM ligand relative to 100 μM ACh (in words) [4]: No response

C[N+]1(C)CCN(c2ccccc2)CC1 [DMPP, dimethylphenylpiperazinium]
response to 100 μM ligand relative to 100 μM ACh (in words) ([1]; agonist panel, Fig 5B): smaller response
response to 100 μM ligand relative to 100 μM ACh (in words) ([2]; agonist panel, Fig 5A): smaller response
response to 100 μM ligand relative to 100 μM ACh (in words) ([3]; agonist panel, Fig 5D): smaller response
response to 100 μM ligand relative to 100 μM ACh (in words) [4]: smaller response
response to 100 μM ligand relative to acetylcholine (in words) [5]: higher responses

CNC[C@H](O)c1ccc(O)c(O)c1 [EPI, epinephrine]
response to 100 μM ligand relative to 100 μM ACh (in words) [1]: No response
response to 100 μM ligand relative to 100 μM ACh (in words) [2]: No response
response to 100 μM ligand relative to 100 μM ACh (in words) [3]: No response
response to 100 μM ligand relative to 100 μM ACh (in words) [4]: No response

c1ccc([C@H]2CN3CCSC3=N2)cc1 [LEV, (-)-tetramisole hydrochloride]
response to 100 μM ligand relative to 100 μM ACh (in words) ([1]; agonist panel, Fig 5B): No response
response to 100 μM ligand relative to 100 μM ACh (in words) ([2]; agonist panel, Fig 5A): No response
response to 100 μM ligand relative to 100 μM ACh (in words) ([3]; agonist panel, Fig 5D): No response
response to 100 μM ligand relative to 100 μM ACh (in words) [4]: No response

Cc1ccsc1/C=C/C1=NCCCN1C [MOR, morantel]
response to 100 μM ligand relative to 100 μM ACh (in words) ([1]; agonist panel, Fig 5B): minimal response
response to 100 μM ligand relative to 100 μM ACh (in words) ([2]; agonist panel, Fig 5A): minimal response
response to 100 μM ligand relative to 100 μM ACh (in words) ([3]; agonist panel, Fig 5D): minimal response
response to 100 μM ligand relative to 100 μM ACh (in words) [4]: minimal response

CN1CCC[C@H]1c1cccnc1 [NIC, (-)-nicotine hydrogen tartrate]
EC50 [6]: 598 ± 59.1 µM
EC50 [1]: 3.8 µM
current response to 100 μM nicotine [1]: 2025 ± 81 nA and 2000–2200 nA
response to 100 μM ligand relative to 100 μM ACh (in words) [1]: large response
EC50 [2]: 5.1 µM
current response to 100 μM nicotine [2]: 2067 ± 74 nA and 2000–2200 nA
response to 100 μM ligand relative to 100 μM ACh (in words) [2]: large response
EC50 [3]: 4.9 µM
current response to 100 μM nicotine [3]: 481 ± 45 nA and 400–600 nA
response to 100 μM ligand relative to 100 μM ACh (in words) [3]: large response
response to 100 μM ligand relative to 100 μM ACh (in words) [4]: large response
current response to 100 μM nicotine [4]: ~ 1400 nA
current response to 100 μM nicotine ([4]; listed as nicotine): 1231 ± 98 nA
EC50 ([4]; concentration-response 0.3-300 μM, normalized to 300 μM, with 95% CI, read-out: EC50 NIC): 2.1 µM
EC50 [7]: 2.9 ± 0.5 µM
current response to 100 μM nicotine [8]: 0 ± 0 nA and no measurable current
EC50 [9]: 24.4 ± 2.89 µM
EC50 [10]: 15.1 ± 1.3 µM

NC[C@H](O)c1ccc(O)c(O)c1 [NOR, norepinephrine]
response to 100 μM ligand relative to 100 μM ACh (in words) ([1]; agonist panel, Fig 5B): No response
response to 100 μM ligand relative to 100 μM ACh (in words) ([2]; agonist panel, Fig 5A): No response
response to 100 μM ligand relative to 100 μM ACh (in words) ([3]; agonist panel, Fig 5D): No response
response to 100 μM ligand relative to 100 μM ACh (in words) [4]: No response

CN1CCCN=C1/C=C/c1cccc(O)c1 [OXA, oxantel]
response to 100 μM ligand relative to 100 μM ACh (in words) ([1]; agonist panel, Fig 5B): smaller response
response to 100 μM ligand relative to 100 μM ACh (in words) ([2]; agonist panel, Fig 5A): smaller response
response to 100 μM ligand relative to 100 μM ACh (in words) ([3]; agonist panel, Fig 5D): smaller response
response to 100 μM ligand relative to 100 μM ACh (in words) [4]: smaller response

CN1CCCN=C1/C=C/c1cccs1 [PYR, pyrantel]
response to 100 μM ligand relative to 100 μM ACh (in words) ([1]; agonist panel, Fig 5B): minimal response
response to 100 μM ligand relative to 100 μM ACh (in words) ([2]; agonist panel, Fig 5A): minimal response
response to 100 μM ligand relative to 100 μM ACh (in words) ([3]; agonist panel, Fig 5D): minimal response
response to 100 μM ligand relative to 100 μM ACh (in words) [4]: minimal response

NCCc1ccc(O)cc1 [TYR, tyramine]
response to 100 μM ligand relative to 100 μM ACh (in words) ([1]; agonist panel, Fig 5B): No response
response to 100 μM ligand relative to 100 μM ACh (in words) ([2]; agonist panel, Fig 5A): No response
response to 100 μM ligand relative to 100 μM ACh (in words) ([3]; agonist panel, Fig 5D): No response
response to 100 μM ligand relative to 100 μM ACh (in words) [4]: No response
